Measurements published in patent US6919094B1, “Composition of medicine for treating headache disease and process of preparation and uses thereof” (priority 2000, dated 2005).

What was measured:
female NIH mice [1] = test: mouse electrostimulation pain threshold; type: in vivo; conditions: 0.05 g/kg ip
Excerpt: 2.3 The influence on the electrostimulation of mouse: The experiment method adopted was to simulate the mouse's vola with the electricity. Female NIH mice weighing 18-22 g were chosen and put on the conductive copper-wire plate of the YSD-4 multipurpose apparatus's zoopery box. The electricity was switched on and the time when the mouse […] chosen as the index of pain threshold. The sensitive mice whose pain thresholds were shorter than 15 s were chosen to do the experiment.

female NIH mice [2] = test: mouse's body-twisting method (ethanoic acid); type: in vivo; conditions: 0.10 g/kg ip, 0.8% ethanoic acid, 20 minutes
Experimental: The experiment method was the mouse's body-twisting method. Female NIH mice weighing 18-22 g were divided into groups at random and each group had 10 mice. […] The number of the mice's body twisting in the following 20 minutes were recorded as the index.

female NIH mice [3] = test: mouse hot-plate method pain threshold; type: in vivo; conditions: 1.5 × 10-2 g/kg ip
Experimental: 2.1 The influence on the mouse's reaction to the heat: The experiment referred to the mouse hot-plate method: female NIH mice weighing 18-22 g were put on the type CS501 ultra thermostat's metallic plate, on which the temperature was 55.0±0.5° C. The action of sucking the postpedes and jumping were concerned as the indexes to the pain caused by the heat and the shortest time when the mouse shown the indexes was defined as the pain threshold. The sensitive mice whose pain threshold were shorter than 30 s were chosen and divided into 4 groups according to their pain threshold, each group including 10 mice. […] If the threshold was beyond 60 s, it would be recorded as 60 s. […] The group on the dosage of 5.0 g/kg improved the pain threshold by 148.74% (p<0.001), and the effect lasted 5 hours.

SD white rats = test: rat's tail-whipping method pain threshold; type: in vivo; conditions: 1.5 × 10-2 g/kg PO
Experimental: 2.2 The influence on the rat's reaction to the heat. The experiment referred to the rat's tail-whipping method: SD white rats weighing 180-220 g were chosen and the distal ⅓ of their tails were dipped into hot water in which the temperature was regulated to 55.0±0.5° C. by the CS501 ultra thermostat. The tail's whipping out of the water was defined to be the index of pain. The rats were divided equably into 5 groups according to the pain threshold and each group had 9 rats. […] (p<0.05), 64.52% (P<0.05), the duration of effect was 1 h, 4 h.

Kunming mice = test: mouse's spontaneous activity; type: in vivo; conditions: 5 × 10-2 g/kg PO
Excerpt: Kunming mice weighing 18-22 g were chosen and divided into groups at random. Each group was made up of 10 mice.

rabbit platelet = rabbit platelet aggregation induced by ADP (Born's method); type: cell-based; conditions: rabbit platelet-rich plasma, ADP 12 μM, 5th minute, 0.27 mg/ml
Experimental: 1.1 The influence on the rabbit platelet's aggregative character: Rabbit platelet plasma was prepared according to the Csalay's method. Lucid rabbit's blood was collected by carotid arterial cannula, then the blood was mingled with 3.8% sodium citrate in proportion of 9:1 to anticoagulate. The mixture was centrifuged on the speed of 1000 rpm for 5 minutes then at the speed of 3000 rpm for 10 minutes. The blood plasma was separated into the platelet-rich plasma and the platelet-absent plasma. When conducting the measurement, the platelet aggregation percent was regulated to 50-60%. The platelet aggregation experiment was performed according to the Born's method by the PPP autobalance platelet-aggregation-machine (type SPA-3), keeping the concentrate of ADP(the aggregation inducer) at 12 μM, then collecting the data and comparing the aggregation percents between the treatment group and the control group at the 5th minute.

rat platelet = rat platelet aggregation after gastric administration; type: in vivo; conditions: 2.7 × 10-2 g/kg PO, ADP 2.8 μM
Experimental: 1.1 The influence on the rabbit platelet's aggregative character: Rabbit platelet plasma was prepared according to the […] method. […] The mixture was centrifuged on the speed of 1000 rpm for 5 minutes then at the speed of 3000 rpm for 10 minutes. The blood plasma was separated into the platelet-rich plasma and the platelet-absent plasma. […] 1.5 hour after the administration, the blood from the abdominal aorta was collected on the condition of anesthesia by ether. The platelet plasma was prepared by the same method mentioned above, and the PLT aggregation experiment performed by the same machine with a different ADP concentrate of 2.8 μM.

male Wistar rats = test: rat's experimental thrombosis (extracorporeal circulation); type: in vivo; conditions: 0.05 g/kg iv
Experimental: 1.3 The influence on the rat's experimental thrombosis: Male Wistar rats weighing 270-370 g were chosen to be anaesthetized by belly injection of sodium pentobarbital on the dosage of 50 mg/kg, then the rats were fixed at the supine position and the right common carotid artery and the left external jugular vein were detached. A polyvinyl pipe of 19.5 cm long with the inside diameter of 1.5 mm embedded in a 5.0 cm-long type 4 suture and filled with the solution of heparin and normal saline (25 μ/kg) was inserted into the right common carotid artery one end and the left external jugular vein the other end. […] 15 minutes later, the pipe was closed, the suture taken out and the greenweight measured.

[4] = tested on: spontaneous hypertension rat (SHR); test: BP of the spontaneous hypertension rat; type: in vivo; conditions: 2 × 10-2 g/kg PO

Cc1c(N(C)C)c(=O)n(-c2ccccc2)n1C [aminopyrine]
pain threshold in the electrostimulation experiment (female NIH mice [1]; after administration): 21.3 ± 5.5 s
pain threshold in the electrostimulation experiment (female NIH mice [1]; before administration): 4.8 ± 1.0 s
twist times (female NIH mice [2]): 2.8 ± 1.3

CN1CC[C@]23c4c5ccc(O)c4O[C@H]2[C@@H](O)C=C[C@H]3[C@H]1C5.Cl [Morphine hydrochloride]
pain threshold (hot-plate method) (female NIH mice [3]; 1/2 h after administration, cut-off 60 s): >60 s
pain threshold (hot-plate method) (female NIH mice [3]; 1 h after administration, cut-off 60 s): >60 s
pain threshold (hot-plate method) (female NIH mice [3]; 3 h after administration, cut-off 60 s): >60 s
pain threshold (hot-plate method) (female NIH mice [3]; 5 h after administration, cut-off 60 s): >60 s
pain threshold (hot-plate method) (female NIH mice [3]; before administration): 22.5 ± 2.4 s
pain threshold (tail-whipping method) (SD white rats; 1/2 h after administration): 9.2 ± 0.8
pain threshold (tail-whipping method) (SD white rats; 1 h after administration): 5.7 ± 0.4
pain threshold (tail-whipping method) (SD white rats; 2 h after administration): 4.5 ± 0.4
pain threshold (tail-whipping method) (SD white rats; 4 h after administration): 3.3 ± 0.4
pain threshold (tail-whipping method) (SD white rats; before administration): 3.2 ± 0.3

COc1cc2c(cc1OC)[C@@H]1Cc3ccc(OC)c(OC)c3CN1CC2 [tetrahydropalmatine]
Amount of spontaneous activity (Kunming mice): 24.3 ± 4.3

CC(=O)Oc1ccccc1C(=O)O [Aspirin]
aggregation percent (rabbit platelet): 39.94 ± 2.05 %
platelet aggregation percent (max) (rat platelet): 31.06 ± 3.80 %
greenweight of thrombus (male Wistar rats): 18.28 ± 1.28 mg

C[C@H](CS)C(=O)N1CCC[C@H]1C(=O)O [Captopril]
blood pressure ([4]; 1/2 week): 113.5 ± 3.9
blood pressure ([4]; 1 week): 138.2 ± 3.6
blood pressure ([4]; 2 week): 142.3 ± 1.8
blood pressure ([4]; 3 week): 140.0 ± 2.0
blood pressure ([4]; before administration): 170.5 ± 2.9
